Experimental data as given in patent US9086390B2, “Dabigatran etexilate and related substances, processes and compositions, and use of the substances as reference standards and markers” (Medichem, S.A., priority 2011, dated 2015).
Structures can show the parent of a compound that is named as a salt.

Experiment: not given
Settings: cited from earlier work

Row | SMILES | main hydrolysis product in vivo
1 | CCCCCCOC(=O)NC(=N)c1ccc(NCc2nc3cc(C(=O)N(CCC(=O)OCC)c4ccccn4)ccc3n2C)cc1 [dabigatran etexilate mesylate, reference compound] | a compound of formula (D1), namely dabigatran

Experiment: Accelerated stability study of dabigatran etexilate mesylate (impurity contents by HPLC method 1)
Type: physicochemical
Settings: content of the named impurity in dabigatran etexilate mesylate of Example 6 after storage in a double polyethylene bag at 40° C. and 75% relative humidity for 3 months; HPLC method 1; area % with respect to dabigatran etexilate
Experimental: The chromatographic separation was carried out in a Kromasil 100-5C18, 5 μm, 4.6×250 mm column at 25° C. The mobile phase was prepared by filtering and degassing an acetonitrile/buffer solution (45:55) v/v mixture. The buffer solution was obtained by preparing a 50 mM formic acid solution in water and adjusting the pH to 3.8 with ammonium hydroxide. The chromatograph was equipped with a 254 nm detector and the flow rate was 1.0 mL per minute. 20 μL of the test samples were injected. The samples were prepared by dissolving the appropriate amount of sample in mobile phase, to obtain a concentration of about 1.0 mg/mL. The chromatogram was run for at least 30 min. […] Impurity contents are expressed in area % with respect to dabigatran etexilate.

Row | Compound/Impurity contents (area %) Example 7 | SMILES
2 | 0.38 area % | CCOC(=O)c1ccc2c(c1)nc(CNc1ccc(C(=N)N)cc1)n2C [Compound (A1), ethyl 2-{[(4-{carbamimidoyl}phenyl)amino]methyl}-1-methyl-1H-benzimidazol-5-carboxylate]
3 | 0.42 area % | CCCCCCOC(=O)/N=C(/N)c1ccc(NCc2nc3cc(C(=O)OCC)ccc3n2C)cc1 [Compound (A2), ethyl 2-{[(4-{[(hexyloxy)carbonyl]carbamimidoyl}phenyl)amino]methyl}-1-methyl-1H-benzimidazol-5-carboxylate]
4 | 3.8 area % | CCCCCCOC(=O)NC(=O)c1ccc(NCc2nc3cc(C(=O)N(CCC(=O)O)c4ccccn4)ccc3n2C)cc1 [Compound (B1), 3-{[(2-{[(4-{[({hexyloxy}carbonyl)amino]carbonyl}phenyl)amino]methyl}-1-methyl-1H-benzimidazol-5-yl)carbonyl](pyridin-2-yl)amino}propanoic acid]
5 | 0.25 area % | CCCCCCOC(=O)NC(=O)c1ccc(NCc2nc3cc(C(=O)N(CCC(=O)OC)c4ccccn4)ccc3n2C)cc1 [Compound (B2), methyl 3-{[(2-{[(4-{[({hexyloxy}carbonyl)amino]carbonyl}phenyl)amino]methyl}-1-methyl-1H-benzimidazol-5-yl)carbonyl](pyridin-2-yl)amino}propanoate]
6 | 7.62 area % | CCCCCCOC(=O)NC(=O)c1ccc(NCc2nc3cc(C(=O)N(CCC(=O)OCC)c4ccccn4)ccc3n2C)cc1 [Compound (B3), ethyl 3-{[(2-{[(4-{[({hexyloxy}carbonyl)amino]carbonyl}phenyl)amino]methyl}-1-methyl-1H-benzimidazol-5-yl)carbonyl](pyridin-2-yl)amino}propanoate]
7 | 0.71 area % | CCCCCCOC(=O)/N=C(/N)c1ccc(NCc2nc3cc(C(=O)N(CCC(N)=O)c4ccccn4)ccc3n2C)cc1 [Compound (B4), 3-{[(2-{[(4-{[(hexyloxy)carbonyl]carbamimidoyl}phenyl)amino]methyl}-1-methyl-1H-benzimidazol-5-yl)carbonyl](pyridin-2-yl)amino}propanamide]
8 | 1.64 area % | Cn1c(CNc2ccc(C(=N)N)cc2)nc2cc(C(=O)N(CCC(=O)O)c3ccccn3)ccc21 [Compound (C1), 3-{[(2-{[(4-{carbamimidoyl}phenyl)amino]methyl}-1-methyl-1H-benzimidazol-5-yl)carbonyl](pyridin-2-yl)amino}propanoic acid, reference compound]
9 | 1.57 area % | CCCCCCOC(=O)/N=C(/N)c1ccc(NCc2nc3cc(C(=O)N(CCC(=O)O)c4ccccn4)ccc3n2C)cc1 [Compound (C2), 3-{[(2-{[(4-{[(hexyloxy)carbonyl]carbamimidoyl}phenyl)amino]methyl}-1-methyl-1H-benzimidazol-5-yl)carbonyl](pyridin-2-yl)amino}propanoic acid]
10 | 0.32 area % | CCCCCCOC(=O)/N=C(/N)c1ccc(NCc2nc3cc(C(=O)N(CCC(=O)OC)c4ccccn4)ccc3n2C)cc1 [Compound (C3), methyl 3-{[(2-{[(4-{[(hexyloxy)carbonyl]carbamimidoyl}phenyl)amino]methyl}-1-methyl-1H-benzimidazol-5-yl)carbonyl](pyridin-2-yl)amino}propanoate]
11 | 0.18 area % | CCCCCCOC(=O)/N=C(/N)c1ccc(N)cc1 [Compound (D), 4-{[(hexyloxy)carbonyl]carbamimidoyl}aniline]

Same assay, conditions: on storage, 40° C. and 75% relative humidity, moisture

Row | SMILES | main hydrolysis product on storage
12 | CCCCCCOC(=O)NC(=N)c1ccc(NCc2nc3cc(C(=O)N(CCC(=O)OCC)c4ccccn4)ccc3n2C)cc1 [dabigatran etexilate mesylate, reference compound] | a compound of formula (B), especially compound (B3)
